“And” between values parts separate entries of the source, which are not always exact repeats. Identical values can stand only once.
System: Staphylococcus aureus (ATCC 6538)
Assay: Microbicidal activity against Staphylococcus aureus (suspension test, surviving CFU)
Assay type: cell-based
Protocol: Bacterial suspensions, specifically Staphylococcus aureus (ATCC 6538) in this example, were prepared by the shake flask method to achieve late log to early stationary phase growth. Bacteria were grown 24 hours in trypticase soy broth (TSB) at 35° C. The cultures were centrifuged at 4,000 rpm for 10 minutes and the supernatants removed. The pellet was collected and washed twice with sterile 0.9% normal saline. The washed microorganisms were suspended and diluted with normal saline to a 3 McFarland standard, i.e., approximately 10^9 bacteria colony forming units (CFU) per ml. Actual colony counts are confirmed by serial dilutions (10^−1 to 10^−5 or 10^−6) plated on trypticase soy agar (TSA) and incubated overnight at 35° C. One hundred microliters of organisms from a stock of 10^7 CFU/ml were used to obtain an approximate final working target inoculum of 10^6 CFU. The microbicidal test is conducted in a vial containing 1.4 ml of final reaction mixture after neutralization.
Each solution was used alone for the individual controls. Organism suspensions were used to achieve a final target concentration of 2-3×10^6 CFU per ml. For the binary system treatments, sodium hypochlorite solution and hydrogen peroxide solution, non-acidified or acidified, were sequentially added to the microorganisms. Acidified hydrogen peroxide solution was obtained by the addition of 1.0% v/v of 0.001 N hydrochloride solution. After each addition, the resulting mixture was allowed to remain in contact with the organisms for a set amount of time at room temperature (about 22° C.), as listed in the Tables 1 and 2. At the end of the treatment time, the mixtures were neutralized with 200 to 500 microliters of thiosulfate solution (2.4%) to quench the activity of sodium hypochlorite and then treated with 100 to 200 microliters of a 1% catalase solution, containing a minimum of 100 units/ul, to quench the hydrogen peroxide activity. If needed, an appropriate volume of sterile saline was added to bring the final volume of reaction mixture to 1.4 ml after neutralization. Serial dilution plate counts were performed from the contents of each vial in sterile saline and inoculated onto TSA for quantitative culture. Plates were then incubated at 37° C. and counts taken at 24 hours.
After an additional 30 minutes, the binary system mixture was then neutralized using 2.4% thiosulfate followed by 1% catalase as described in the Methods Section.

[1] = NaOCl 0.02 mM 15 min, then saline 30 min, inoculum 2530000 CFU
[2] = NaOCl 0.02 mM 15 min, inoculum 2500000 CFU
[3] = NaOCl 0.02 mM 15 min, inoculum 2530000 CFU
[4] = NaOCl 0.03 mM 15 min, then saline 30 min, inoculum 2530000 CFU
[5] = NaOCl 0.03 mM 15 min, inoculum 2500000 CFU
[6] = NaOCl 0.03 mM 15 min, inoculum 2530000 CFU
[7] = NaOCl 0.04 mM 15 min, then saline 30 min, inoculum 2530000 CFU
[8] = NaOCl 0.04 mM 15 min, inoculum 2500000 CFU
[9] = NaOCl 0.04 mM 15 min, inoculum 2530000 CFU
[10] = NaOCl 0.05 mM 15 min, then saline 30 min, inoculum 2530000 CFU
[11] = NaOCl 0.05 mM 15 min, inoculum 2530000 CFU
[12] = NaOCl 0.06 mM 15 min, then saline 30 min, inoculum 2530000 CFU
[13] = NaOCl 0.06 mM 15 min, inoculum 2530000 CFU
[14] = NaOCl 0.07 mM 5 min, inoculum 1600000 CFU
[15] = NaOCl 0.07 mM 15 min, then saline 30 min, inoculum 2530000 CFU
[16] = NaOCl 0.07 mM 15 min, inoculum 1600000 CFU
[17] = NaOCl 0.07 mM 15 min, inoculum 2530000 CFU
[18] = NaOCl 0.07 mM 30 min, inoculum 1600000 CFU
[19] = NaOCl 0.71 mM 5 min, inoculum 1600000 CFU
[20] = NaOCl 0.71 mM 15 min, inoculum 1600000 CFU
[21] = NaOCl 0.71 mM 30 min, inoculum 1600000 CFU
[22] = NaOCl 7.05 mM 5 min, inoculum 1600000 CFU
[23] = NaOCl 7.05 mM 15 min, inoculum 1600000 CFU
[24] = NaOCl 7.05 mM 30 min, inoculum 1600000 CFU
[25] = NaOCl 70.53 mM 5 min, inoculum 1600000 CFU
[26] = NaOCl 70.53 mM 15 min, inoculum 1600000 CFU
[27] = NaOCl 70.53 mM 30 min, inoculum 1600000 CFU
[28] = NaOCl 705.27 mM 5 min, inoculum 1600000 CFU
[29] = NaOCl 705.27 mM 15 min, inoculum 1600000 CFU
[30] = NaOCl 705.27 mM 30 min, inoculum 1600000 CFU

In the case of `[Na+].[O-]Cl` [NaOCl, sodium hypochlorite], the “Log 10 (CFU + 1) Survivors” value [1] is reported as 3.0, the “Log Reduction” value [1] is reported as 3.4 and the “Total Viability (CFU)” value [1] is reported as 1092 CFU. For the same compound, the “Log 10 (CFU + 1) Survivors” value [2] was 6.3, the “Log Reduction” value [2] was 0.1 and 0.12 and the “Total Viability (CFU)” value [2] was 1890000 CFU. For the same compound, the “Log 10 (CFU + 1) Survivors” value [3] was 3.1, the “Log Reduction” value [3] was 3.3 and 3.29 and the “Total Viability (CFU)” value [3] was 1288 CFU. The “Log 10 (CFU + 1) Survivors” value [4] was 2.4, the “Log Reduction” value [4] was 4.0 and the “Total Viability (CFU)” value [4] was 260 CFU. The “Log 10 (CFU + 1) Survivors” value [5] was 4.9, the “Log Reduction” value [5] was 1.5 and 1.53 and the “Total Viability (CFU)” value [5] was 74200 CFU. For the same compound, the “Log 10 (CFU + 1) Survivors” value [6] was 2.9, the “Log Reduction” value [6] was 3.5 and 3.51 and the “Total Viability (CFU)” value [6] was 784 CFU. The “Log 10 (CFU + 1) Survivors” value [7] was 1.3, the “Log Reduction” value [7] was 5.1 and the “Total Viability (CFU)” value [7] was 18 CFU. The “Log 10 (CFU + 1) Survivors” value [8] was 2.8, the “Log Reduction” value [8] was 3.6 and 3.61 and the “Total Viability (CFU)” value [8] was 616 CFU. The “Log 10 (CFU + 1) Survivors” value [9] was 2.2, the “Log Reduction” value [9] was 4.2 and 4.18 and the “Total Viability (CFU)” value [9] was 167 CFU. For the same compound, the “Log 10 (CFU + 1) Survivors” value [10] was 1.1, the “Log Reduction” value [10] was 5.3 and the “Total Viability (CFU)” value [10] was 13 CFU. The “Log 10 (CFU + 1) Survivors” value [11] was 1.3, the “Log Reduction” value [11] was 5.1 and 5.15 and the “Total Viability (CFU)” value [11] was 17 CFU. For the same compound, the “Log 10 (CFU + 1) Survivors” value [12] was 0.9, the “Log Reduction” value [12] was 5.5 and the “Total Viability (CFU)” value [12] was 7 CFU. The “Log 10 (CFU + 1) Survivors” value [13] was 0.0, the “Log Reduction” value [13] was 6.4 and the “Total Viability (CFU)” value [13] was 0 CFU. For the same compound, the “Log 10 (CFU + 1) Survivors” value [14] was 0.7, the “Log Reduction” value [14] was 5.5 and the “Total Viability (CFU)” value [14] was 4 CFU. For the same compound, the “Total Viability (CFU)” value (NaOCl 0.07 mM 5 min, inoculum 1600000 CFU, listed as sodium hypochlorite) was “four”, the “Log 10 (CFU + 1) Survivors” value [15] was 0.0 and the “Log Reduction” value [15] was 6.4. The “Total Viability (CFU)” value [15] was 0 CFU, the “Log 10 (CFU + 1) Survivors” value [16] was 0.9 and the “Log Reduction” value [16] was 5.3. The “Total Viability (CFU)” value [16] was 7 CFU, the “Total Viability (CFU)” value (NaOCl 0.07 mM 15 min, inoculum 1600000 CFU, listed as sodium hypochlorite) was “seven” and the “Log 10 (CFU + 1) Survivors” value [17] was 0.0. For the same compound, the “Log Reduction” value [17] was 6.4, the “Total Viability (CFU)” value [17] was 0 CFU and the “Log 10 (CFU + 1) Survivors” value [18] was 0.0. The “Log Reduction” value [18] was 6.2, the “Total Viability (CFU)” value [18] was 0 CFU and the “Log 10 (CFU + 1) Survivors” value [19] was 0.0. The “Log Reduction” value [19] was 6.2, the “Total Viability (CFU)” value [19] was 0 CFU and the “Log 10 (CFU + 1) Survivors” value [20] was 0.0. For the same compound, the “Log Reduction” value [20] was 6.2, the “Total Viability (CFU)” value [20] was 0 CFU and the “Log 10 (CFU + 1) Survivors” value [21] was 0.0. For the same compound, the “Log Reduction” value [21] was 6.2, the “Total Viability (CFU)” value [21] was 0 CFU and the “Log 10 (CFU + 1) Survivors” value [22] was 0.0. The “Log Reduction” value [22] was 6.2, the “Total Viability (CFU)” value [22] was 0 CFU and the “Log 10 (CFU + 1) Survivors” value [23] was 0.0. For the same compound, the “Log Reduction” value [23] was 6.2, the “Total Viability (CFU)” value [23] was 0 CFU and the “Log 10 (CFU + 1) Survivors” value [24] was 0.0. The “Log Reduction” value [24] was 6.2, the “Total Viability (CFU)” value [24] was 0 CFU and the “Log 10 (CFU + 1) Survivors” value [25] was 0.0. For the same compound, the “Log Reduction” value [25] was 6.2, the “Total Viability (CFU)” value [25] was 0 CFU and the “Log 10 (CFU + 1) Survivors” value [26] was 0.0. For the same compound, the “Log Reduction” value [26] was 6.2, the “Total Viability (CFU)” value [26] was 0 CFU and the “Log 10 (CFU + 1) Survivors” value [27] was 0.0. The “Log Reduction” value [27] was 6.2, the “Total Viability (CFU)” value [27] was 0 CFU and the “Log 10 (CFU + 1) Survivors” value [28] was 0.0. For the same compound, the “Log Reduction” value [28] was 6.2, the “Total Viability (CFU)” value [28] was 0 CFU and the “Log 10 (CFU + 1) Survivors” value [29] was 0.0. For the same compound, the “Log Reduction” value [29] was 6.2, the “Total Viability (CFU)” value [29] was 0 CFU and the “Log 10 (CFU + 1) Survivors” value [30] was 0.0. For the same compound, the “Log Reduction” value [30] was 6.2 and the “Total Viability (CFU)” value [30] was 0 CFU.
